Experimental data: patent US20220387358A1, “CERAMIDE ANALOG SACLAC MODULATES SPHINGOLIPID LEVELS AND MCL-1 SPLICING TO INDUCE APOPTOSIS IN ACUTE MYELOID LEUKEMIA” (University of Virginia Patent Foundation, priority 2019, published 2022)
“And” between values parts separate entries of the source, which are not always exact repeats. Equal entries are not always repeated. Where two headings read alike, the source gives them in different places.

Assays:
30 human AML cell lines = test: Cell viability MTS assay, panel of cell lines; format: cell-based; settings: 24 and 48-hour time points
Method: For cell viability, cell lines were plated at 2.5×10^4 cells per well in a 96-well plate and treated with […] or DMSO vehicle (0.4% of total volume) for the indicated time points and doses. At the experiment end point, 3-(4,5-Dimethylthiazol-2-yl)-5-(3-carboxymethoxyphenyl)-2-(4-sulfophenyl)-2H-tetrazolium (MTS) Cell Proliferation Colorimetric Assay Kit (# K300-5000, BioVision, Inc., Milpitas, Calif., United States of America) reagent was added and incubated for 2 hours. Conversion of MTS to formazan product was measured by absorbance at 490 nm using a BioTek Cytation 3 plate reader (BioTeck, Winooski, Vt., United States of America). Absorbance was normalized to DMSO control, which was defined as 100% viability. Due to limited cell numbers, patient samples and normal samples were plated at 5×10^3 cells per well in a 384-well plate with […] or DMSO control for the indicated time points and doses. At the experiment end point, a luminescent reagent sold under the tradename [sequence]-GLOTM (#G7572, Promega Corporation, Madison, Wis., United States of America) was added. After 15 minutes, luminescence was read on a BioTek Cytation 3 plate reader (BioTek, Winooski, Vt., United States of America). Absorbance was normalized to DMSO control, which was defined as 100% viability.

[1] = system: two human AML xenograft mouse models; test: Leukemic burden across two human AML xenograft mouse models; format: in vivo
Description: To assess the efficacy of SACLAC in a transplantable human AML model, two cell line models were used. For the MV4-11 model, 2.5×10^6 luciferase and yellow fluorescent protein (YFP)-expressing MV4-11 cells in HBSS were introduced into 6- to 8-week-old female NSG mice via tail-vein injections. After 10-12 days, engraftment was confirmed using bioluminescence imaging with the IVIS Lumina LT Series III imaging system (PerkinElmer Inc., Waltham, Mass., United States of America). Mice were equally randomized into two groups of three mice and treated with vehicle or SACLAC at 5 mg/kg/day five times per week for 18 total injections. At the end of the treatment, animals were euthanized and peripheral blood was collected for flow cytometry analysis.
For the U937 model, 1×10^4 luciferase and tdTomato-expressing U937 cells in […] were introduced into 6- to 8-week-old female NSG mice via tail-vein injections. After six days, engraftment was confirmed as stated above. Mice were equally randomized into two groups of five mice and treated with vehicle or SACLAC at 5 mg/kg/day five times per week for 15 total injections. Animals were euthanized and bone marrow was collected for flow cytometry analysis.

[2] = Mouse serum SACLAC levels by formulation and route; format: in vivo
Method: More particularly, SACLAC was dissolved in 2-hydroxypropyl-β-cyclodextrin (β-HPCD) (53). In addition, a SACLAC nanoliposome was prepared.

[3] = Pharmacokinetics, SACLAC in blood/serum by mass spectrometry; format: in vivo
Method: More particularly, maximum tolerated dose of SACLAC was determined in NOD-scid IL2Rgamma^null (NSG) mice (n=5; Jackson Laboratories, Bar Harbor, Me., United States of America). Mice were injected with SACLAC reconstituted in β-HPCD (IV) daily for 5 days at a dose of 5 mg/kg body weight, respectively. For pharmacokinetics studies, Swiss Webster mice (n=3; Charles River Laboratories, Wilmington, Mass., United States of America) were injected with SACLAC dissolved in DMSO (40 mg/kg body weight, intraperitoneally) or dissolved in β-HPCD (5 mg/kg body weight, via tail-vein injection). Mice were euthanized and blood was harvested at time points ranging from 0 to 48 hours. Serum concentration of SACLAC was measured by mass spectrometry quantification relative to SACLAC standard using the method referenced above.

human AML cell lines = test: Sphingolipid analysis by LC-ESI-MS/MS (S1P, total ceramide); format: cell-based; settings: 2.5 μM, 24 hours
Method: Lipid extraction and analysis was done using liquid chromatography-electrospray ionization-tandem mass spectrometry (LC-ESI-MS/MS) as previously described (22). Cells were plated at 5 million cells per 6 ml and treated with SACLAC or DMSO for 24 hours. Lipids were extracted from cell pellets using an azeotrophic mix of isopropanol: water: ethyl acetate (3:1:6; v:v:v). Internal standards (50 pmol of d17 long-chain bases and C12 acylated sphingolipids) were added to samples at the onset of the extraction procedure. Extracts were separated on a Waters I-class Acquity UPLC chromatography system (Waters Corporation, Milford, Mass., United States of America). Mobile phases were (A) 60:40 water: acetonitrile and (B) 90:10 isopropanol:methanol with both mobile phases containing 5 mM ammonium formate and 0.1% formic acid. A Waters C18 CSH 2.1 mm ID×10 cm column maintained at 65° C. was used for the separation of the sphingoid bases, 1-phosphates, and acylated sphingolipids. The eluate was analyzed with an inline Waters TQ-S mass spectrometer (Waters Corporation, Milford, Mass., United States of America) using multiple reaction monitoring. All data reported are based on monoisotopic mass and are represented as pmol/mg protein.

CCCCCCCCCCCCCCC[C@@H](O)[C@H](CO)NC(=O)CCl [SACLAC, N-[(2S,3R)-1,3-dihydroxyoctadecan-2-yl]2-chloroacetamide]
EC50 (30 human AML cell lines; read-out: average EC50 across 30 human AML cell lines): 3.2 µM
EC50 (30 human AML cell lines; Homo sapiens, 48 h, read-out: average EC50 across 30 human AML cell lines): ~3 µM
EC50 (30 human AML cell lines; Homo sapiens, 48 h, read-out: EC50 of 25 of 30 cell lines, 25 of 30 cell lines): < 5 µM
reduction in leukemic burden [1]: 37 to 75%
clearance ([2]; all treatment groups): rapidly cleared
serum levels ([2]; free SACLAC in DMSO, i.p.): low serum levels
maximum serum level ([2]; maximum over the formulations tested): ~1 µM
serum levels ([2]; β-HPCD, i.v.): improvement
maximal serum concentration, IV vs IP delivery ([3]; 5 mg/kg i.v. in β-HPCD vs 40 mg/kg i.p. in DMSO): higher maximal serum concentration than IP delivery
half-life in the blood ([3]; 40 mg/kg i.p. in DMSO or 5 mg/kg i.v. in β-HPCD): short half-life
peak serum SACLAC levels ([3]; after changing administration route and vehicle): less than 1 μM
uptake following i.p. injection ([3]; mouse, in vivo, ip): suboptimal uptake
increase in total ceramide (human AML cell lines; HL-60/VCR, THP-1, OCI-AML2): 2.5 fold and 2- to 3 fold
S1P content reduced by (human AML cell lines; HL-60/VCR): 87%
S1P levels (human AML cell lines; OCI-AML2): below the limit of detection
S1P levels (human AML cell lines; THP-1): below the limit of detection
